From patent US20020032316A1, “Hapten-carrier conjugates for use in drug-abuse therapy and methods for preparation of same” (priority 1995, published 2002)
Like-named read-outs stand apart in the source and are kept apart here.

Tests used:
[1] = cited from earlier work
[2] = tested on: antibodies in the rat sera binding to PS-5.4 HEL; conditions: sera of rats immunized with cocaine-rCTB conjugate
[3] = tested on: anti-cocaine antisera; assay: Specificity competition ELISA: drugs inhibiting binding of antibodies to cocaine-HEL; conditions: pool of antisera of mice immunized with cocaine-CTB PS-5.53; varying concentrations
[4] = Cocaine LD50 and time-to-death in immunized and naive mice; conditions: BALB/c, mouse, in vivo
Experimental: In these experiments, cocaine-immunized and control carrier-immunized mice are injected i.v. with cocaine at doses around the previously defined LD50. Ten mice are used at each point, and the data is analyzed using a Cochran-Mantel-Haenzel Chi-squared test.
In addition, a failure time model is used to analyze the time-to-death induced by cocaine. The extent to which the anti-cocaine antibodies increase both (a) the dose of cocaine required for lethality and (b) the time-to-death are measures of efficacy in this model. These provide a rapid and rigorous test of the in vivo efficacy of the antibodies.
The efficacy of therapeutic vaccination against cocaine was assessed by determining the lethal dose of cocaine (LD50) in immunized and naive animals. […] Each of the mice was bled at day 34 and serum antibody titers and competition with cocaine were assessed. […] For the LD50 experiment, 4-6 mice were used per group and each group was carefully matched for antibody titer and apparent affinity for free cocaine.

[5] = cited from earlier work; for peak plasma concentration: in vivo; for plasma half life: Henningfield (1995)
[6] = tested on: mice; conditions: for total levels of cocaine in the brains of control mice: mouse, in vivo
[7] = tested on: rats; assay: Discrimination of cocaine from saline, 2-lever procedure; type: in vivo; conditions: Rattus norvegicus, ip; rats trained on 10 mg/kg cocaine i.p., cumulative dosing; read-out: ED50±95% C.I. for cocaine-appropriate responses
Description: After cocaine injections are given, the animals are required to press one of the levers (drug-appropriate lever) 10 times (FR 10) to obtain a food pellet; upon saline injections, they are required to press the other lever (saline-appropriate lever) 10 times to obtain a food pellet. When animals have learned to discriminate cocaine from saline, at least 90% of the total responses are made on the appropriate lever for several consecutive days. In order to incorporate a cumulative dosing procedure during later substitution test sessions, training sessions are made up of multiple components, each lasting for 10 min or until 10 FRs are completed, whichever occurred first.
Following training, substitution test sessions with different doses of cocaine (0.3-17.8 mg/kg) are conducted twice weekly, with training sessions on intervening days. Drug substitution test sessions consisted of four 10 min components, each preceded by a 15 min time-out period. During substitution tests, completion of 10 responses on either lever produce a food pellet. Incremental doses of cocaine are injected at the beginning of each of the 4 time-out periods. Overlapping ranges of cumulative doses are studied on different test days, permitting a seven-point cumulative dose-response curve to be determined in a single week. […]

[8] = tested on: antibodies in the sera binding to PS-55 HEL; assay: Competition ELISA with free nicotine or cotinine; parameters: species or system mouse; conditions: sera of mice injected with PS-55 BSA
Experimental: To determine whether the induced antibodies are capable of recognizing the free nicotine molecule, a competition ELISA was performed. In this assay, free nicotine competes with PS-55 HEL coated to ELISA plates for the binding of antibodies in the sera. If the antibodies that have a high affinity for nicotine comprise most of the antibodies binding to the PS-55 HEL, then low concentrations of nicotine are capable of effectively inhibiting the antibody binding. For 3 out of 4 mice described above which were injected with PS-55 BSA, antibody binding to PS-55 HEL was inhibited by free nicotine (FIG. 25). Note that the presence of antibody specific for the conjugate alone would not be expected to interfere with the action of the anti-nicotine antibody.

[9] = in vivo; cited from earlier work
[10] = pre-incubation with 50-fold excess unlabeled nicotine
Experimental: Immune sera from the above experiment was incubated with [^3H]-nicotine and protein-G-conjugated Sepharose beads (Gammabind-G Sepharose, Pharmacia), which bind IgG in the sera samples. The antibody-bound [^3H]-nicotine was isolated by centrifugation of the beads and was detected by scintillation counting of the beads.

[11] = HPLC analysis of methyl ester hydrolysis of succinylated norcocaine; conditions: 25° C.
[12] = tested on: eukaryotic cells expressing ganglioside GM1; type: cell-based

C[C@]12N[C@H](Cc3ccccc31)c1ccccc12 [MK-801]
increase of cocaine LD50 ([1]; alone): 1.3 fold | increase of cocaine LD50 ([1]; combined with propanolol): 1.4 fold

CN1[C@H]2CC[C@@H]1[C@@H](C(=O)O)[C@@H](OC(=O)c1ccccc1)C2 [benzoylecgonine, 3β-(Benzoyloxy)-8-methyl-8-azabicyclo[3.2.1]octane-2β-carboxylic acid]
competition of rat sera [2]: none of the sera tested are able to be competed by benzoylecgonine | inhibition of binding of antibodies to cocaine-HEL [3]: at high concentrations

COC(=O)[C@H]1[C@@H](OC(=O)c2ccccc2)C[C@@H]2CC[C@H]1N2C [cocaine, 3β-(Benzoyloxy)-8-methyl-8-azabicyclo[3.2.1]octane-2β-carboxylic acid methyl ester]
LD50 ([4]; ip): 20 mg/kg | LD50 ([4]; iv): 3 mg/kg | published peak plasma levels ([5]; in addicts, Ambre 1991, Cone 1995, Cone 1989): 0.3 to 1.5 µg/mL | peak plasma concentration [5]: 0.3 to 1 µg/mL | time of peak cocaine levels ([6]; after intranasal administration): 2 to 5 min | time of peak cocaine levels ([6]; after intravenous injection): 0.25 min | total levels of cocaine in the brains of control mice [6]: 1538 ng/g | total levels of cocaine in the brains of control mice ([6]; iv): 2260 ng/g | ED50 [7]: 2.14 ± 0.2 mg/kg

CN1C(=O)CCC1c1cccnc1 (stereo not shown) [cotinine, N-Methyl-2-(3-pyridyl)-5-pyrrolidone]
plasma half life [5]: 19 h | competition for antibodies in the sera [8]: cannot compete with antibodies in any of the sera except at very high concentrations

CNCCCN1c2ccccc2CCc2ccccc21 [desipramine]
cocaine abstinence rate following treatment [9]: ≤ 70%

CN1CCCC1c1cccnc1 (stereo not shown) [nicotine, 1-Methyl-2-(3-pyridyl)pyrrolidine]
inhibition of [^3H]-nicotine binding to antibodies [10]: completely inhibited the binding | plasma half life [5]: approximately two | peak plasma concentration [5]: 0.025 to 0.05 µg/mL

COC(=O)[C@H]1[C@@H](OC(=O)c2ccccc2)C[C@@H]2CC[C@H]1N2C(=O)CCC(=O)O [succinylated norcocaine, 3β-(Benzoyloxy)-8-succinoyl-8-azabicyclo[3.2.1]octane-2β-carboxylic acid methyl ester]
time for 5% degradation ([11]; pH 6): 1.30 years | time for 5% degradation ([11]; pH 8): 10.96 days

rCTB
binding to cells (flow cytometry) [12]: bound to eukaryotic cells expressing ganglioside GM1
